Non-standard residues stand in square brackets, D forms with d. No end group written: not given here. F14 = C20-Glu-EG2-EG2-MAL; B38 = not defined here; Aib = CC(C)(N)C(=O)O
Assay: body weight reduction and feed intake over 24 hours after oral administration
Assay type: in vivo
Conditions: oral administration to mice

| Substance | Weight loss (%) compared to untreated group |
| --- | --- |
| Conjugate 33: polypeptide SEQ ID NO 24; biotin moiety B38 at K1 (K(B38)CNTATCATQRLANFLVHSSNNFGPILPPTNVGSNTY; ends and bridges not checked) | -4.07 ± 1.30% |
| Polypeptide SEQ ID NO 24: amylin derivative KCNTATCATQRLANFLVHSSNNFGPILPPTNVGSNTY (Amylin derivative) [reference compound] | -2.63 ± 1.06% |
| Polypeptide SEQ ID NO 28: amylin derivative KCNTATCATQRLADFLLRHSSNNFGAIPSSTNVGSRTY (KCNTATCATQRLADFLRHSSNNFGAIPSSTNVGSRTY; Amylin derivative) [reference compound] | -1.11 ± 0.84% |
| Polypeptide SEQ ID NO 30: amylin derivative RCNTATCATQRLADFLLRHSSNNFGAIPSSTNVGSKTY (RCNTATCATQRLADFLRHSSNNFGAIPSSTNVGSKTY; Amylin derivative) [reference compound] | -1.17 ± 0.76% |
| Polypeptide SEQ ID NO 26: amylin derivative KCNTATCATQRLADFLLRHSSPNFGAIPSSTNVGSRTY (KCNTATCATQRLADFLRHSSPNFGAIPSSTNVGSRTY; Amylin derivative) [reference compound] | -3.13 ± 1.05% |
| Conjugate 61: polypeptide SEQ ID NO 24; biotin moiety B38 at K1; fatty acid moiety F11 at K1 (K(B38)CNTATCATQRLANFLVHSSNNFGPILPPTNVGSNTY; ends and bridges not checked; also: fatty acid F11 also at K1, attachment order not given here) | -2.96 ± 4.22% |

Assay: body weight change after 2 weeks of subcutaneous administration in obese mouse model
Assay type: in vivo
Conditions: subcutaneous for 2 weeks, FIG. 10
Procedure: Conjugates 58 and 59 were subcutaneously administered for 2 weeks into an obese mouse model, then body weight changes were measured.

| Substance | body weight compared to the untreated group |
| --- | --- |
| Conjugate 59: polypeptide SEQ ID NO 8; biotin moiety B38 at K12; fatty acid moiety F14 at C30 (H[Aib]QGTFTSDYSK(B38)YLDEQAAKEFVQWLMNTC(F14); reading uncertain) | substantially reduced |
